From US20150031892A1, “SPHINGOLIPID METABOLITE MIMETICS” (Zhejiang University, priority 2012, published 2015)
Like-named read-outs stand apart in the source and are kept apart here.

Columns and labels:
Assay type in all cases: cell-based
HepG2 = assay: MTT cytotoxicity assay, HepG2 (liver cancer); details: Homo sapiens
In short: (§1)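 Cells seeded at 7000/well for 24 h, then exposed to sphingolipid metabolite mimetics at final 0 to 200 μM. MTT added for 4 h at 37° C; formazan dissolved in DMSO and absorbance read at 570 nm.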

A431 = assay: MTT cytotoxicity assay, A431 (squamous carcinoma); details: Homo sapiens, A-431
In short: as §1

SA = assay: MTT cytotoxicity assay, SA (pancreatic cancer as headed)
In short: as §1

MCF-7 = assay: MTT cytotoxicity assay, MCF-7 (breast cancer); details: Homo sapiens, MCF7; Breast Cancer MCF-7, MTT
Description: (§2) Cell survival after exposure to the sphingolipid metabolite mimetics was examined by MTT cytotoxicity assay. HepG2, A431, HeLa, MCF-7 and SA cells (7000 cells/well) were seeded in each well of a 96-well plate for 24 h. New medium was added to give final concentrations of 0 to 200 μM of the sphingolipid metabolite mimetics. Then, 50 μl of 1 mg/ml 3-(4,5-dimethylthiazol-2-yl)-2,5-diphenyltetrazolium bromide (MTT, Sigma-Aldrich Chemical) was added to each well for 4 h incubation at 37° C. The purple formazan formed was then solubilized by DMSO and absorbance at 570 nm was read by a microplate reader (Molecular Devices, Sunnyvale, Calif.).

SiHa = assay: MTT cytotoxicity assay, SiHa (ovarian cancer as headed); details: Homo sapiens, Cervical Cancer SiHa
SW620 = assay: MTT cytotoxicity assay, SW620 (colon cancer); details: Homo sapiens, SW-620
SW480 = assay: MTT cytotoxicity assay, SW480 (colon cancer); details: Homo sapiens
[1] = system: multiple types of cancer cells; assay: MTT cytotoxicity, statements over several cancer cell lines; details: for direct anti-cancer cell activity: summary statement
Description: as §2

SW620 cells = assay: Drug sensitivity MTT assay with TRAIL, SW620; parameters: scale not given here; details: for NZJU alone mean value (sensitivity, growth inhibition): drug alone (19-100 μM; TRAIL 100 ng/ml); for NZJU alone mean value (sensitivity, growth inhibition) / combine mean value (sensitivity, growth inhibition): 48 h; for Enhanced mean value: enhancement due to co-administration with TRAIL; for combine mean value (sensitivity, growth inhibition): mimetic at the dose of its row combined with TRAIL 100 ng/ml
Description: (§3) Cell survival after exposure to the anti-tumor agents was examined by MTT cytotoxicity assay. Cells were seeded in each well of a 96-well plate for 24 h. After incubation with various concentrations of compounds, TRAIL, or both for 48 h, the medium was discarded. Then, 50 μl of 1 mg/ml 3-(4,5-dimethylthiazol-2-yl)-2,5-diphenyltetrazolium bromide (MTT, Sigma-Aldrich Chemical) was added to each well for 4 h incubation at 37° C. The purple formazan formed was then solubilized by DMSO and absorbance at 570 nm was read by a microplate reader (Molecular Devices, Sunnyvale, Calif.).

MCF-7 cells = assay: Drug sensitivity MTT assay with TRAIL, MCF-7; parameters: scale not given here; details: for NZJU alone mean value (sensitivity, growth inhibition): drug alone (19-100 μM; TRAIL 100 ng/ml); for NZJU alone mean value (sensitivity, growth inhibition) / combine mean value (sensitivity, growth inhibition): 48 h; for Enhanced mean value: enhancement due to co-administration with TRAIL; for combine mean value (sensitivity, growth inhibition): mimetic at the dose of its row combined with TRAIL 100 ng/ml
Description: as §3

HELA cells = assay: Drug sensitivity MTT assay with TRAIL, HELA; parameters: scale not given here; details: for NZJU alone mean value (sensitivity, growth inhibition): drug alone (19-100 μM; TRAIL 100 ng/ml); for NZJU alone mean value (sensitivity, growth inhibition) / combine mean value (sensitivity, growth inhibition): 48 h; for Enhanced mean value: enhancement due to co-administration with TRAIL; for combine mean value (sensitivity, growth inhibition): mimetic at the dose of its row combined with TRAIL 100 ng/ml
Description: as §3

[2] = system: cancer cells (TRAIL resistance); assay: Sensitization of cancer cells to TRAIL-induced apoptosis, general statements; details: summary statement
Description: as §3

MES-SA cells = assay: Apoptosis assay, Hoechst 33342 fluorescence staining; details: doses of their IC50 for 8 h
Description: The cells were then washed with PBS and stained with Hoechst 33342 (from sigma chemical) for 20 min in the dark. Morphologic changes were analyzed under a fluorescence microscope. The experiment was repeated three times.

| Compound | IC50 (HepG2) | IC50 (A431) | IC50 (SA) | IC50 (MCF-7) | IC50 (SiHa) | IC50 (SW620) | IC50 (SW480) | direct anti-cancer cell activity [1] | NZJU alone mean value (sensitivity, growth inhibition) (SW620 cells) | Enhanced mean value (SW620 cells) | combine mean value (sensitivity, growth inhibition) (SW620 cells) | NZJU alone mean value (sensitivity, growth inhibition) (MCF-7 cells) | Enhanced mean value (MCF-7 cells) | combine mean value (sensitivity, growth inhibition) (MCF-7 cells) | NZJU alone mean value (sensitivity, growth inhibition) (HELA cells) | Enhanced mean value (HELA cells) | combine mean value (sensitivity, growth inhibition) (HELA cells) | TRAIL sensitization activity [2] | apoptotic cell death, fluorescent micrographs (FIG. 30) (MES-SA cells) | also measured |
| --- | --- | --- | --- | --- | --- | --- | --- | --- | --- | --- | --- | --- | --- | --- | --- | --- | --- | --- | --- | --- |
| CCCCCCCCCCCCNC(=O)[C@@H](NC(=O)c1ccco1)[C@@H](C)O [NZJU13, N-((2S,3R)-3-hydroxy-1-oxo-1-(dodecylamino)butan-2-yl)-Furan-2-carboxamide] | 147 ± 22.3 µM | 92.4 ± 2.64 µM | 93.5 ± 3.13 µM | 67.5 ± 4.88 µM | 64.3 ± 1.68 µM | 87.5 ± 7.58 µM | 125 ± 16.1 µM | direct anti-cancer cell activity | 0.126 | 0.321 | 0.520 | 0.148 | 0.321 | 0.582 | 0.146 | 0.254 | 0.435 | TRAIL sensitization activity |  |  |
| CCCCCCCCCCCCNC(=O)[C@@H](NC(=O)c1ccccc1)[C@@H](C)O [NZJU16, N-((2S,3R)-3-hydroxy-1-oxo-1-(dodecylamino)butan-2-yl)-benzamide] | > 400 µM | 41.2 ± 0.69 µM | 75.5 ± 6.24 µM | 36.6 ± 8.86 µM | 63.9 ± 6.01 µM | ≥ 200 µM | 67.2 ± 7.42 µM | direct anti-cancer cell activity | 0.376 | 0.304 | 0.607 | 0.479 | 0.197 | 0.741 | 0.264 | 0.298 | 0.597 | TRAIL sensitization activity |  |  |
| CCCCCCCCCCCCNC(=O)[C@@H](NC(=O)Cc1c[nH]c2ccccc12)[C@@H](C)O [NZJU27, N-((2S,3R)-3-hydroxy-1-oxo-1-(dodecylamino)butan-2-yl)-indole-3-acetic acid amide] | 22.6 ± 2.89 µM | 23.4 ± 3.48 µM | 20 ± 0.74 µM | 15.5 ± 2.3 µM | 13.6 ± 1.02 µM | 22 ± 2.86 µM | 20 µM | direct anti-cancer cell activity |  |  |  |  |  |  |  |  |  |  | apoptotic cell death | IC50 ([1]; all five cell lines tested, read-out: IC50 values): < 30 µM |
| CCCCCCCCCCCCNC(=O)[C@@H](NC(=O)c1nccc2ccccc12)[C@@H](C)O [NZJU30, N-((2S,3R)-3-hydroxy-1-oxo-1-(dodecylamino)butan-2-yl)-isoquinoline-1-carboxamide] | 65.7 ± 2.63 µM | 62.8 ± 7.56 µM | 51.93 ± 0.42 µM | 50.5 ± 5.65 µM | 56.6 ± 4.91 µM | 65.8 ± 4.14 µM | 58.8 µM | direct anti-cancer cell activity | −0.038 | 0.375 | 0.493 | 0.002 | 0.157 | 0.274 | 0.057 | 0.075 | 0.195 | TRAIL sensitization activity |  | NZJU alone mean value (sensitivity, growth inhibition) (SW620 cells; listed as NZJU2f): very little sensitivity |
| CCCCCCCCCCCCCCNC(=O)[C@@H](NC(=O)c1cccs1)[C@@H](C)O [NZJU34, N-((2S,3R)-3-hydroxy-1-oxo-1-(tetradecylamino)butan-2-yl)-2-thiophene carboxamide] | 88.4 ± 15.5 µM | 26.4 ± 4.03 µM | 21.2 ± 3.78 µM | 36.07 ± 0.27 µM | 63 ± 0.25 µM | 78.4 ± 11.1 µM | 70.3 µM | direct anti-cancer cell activity | 0.315 | 0.275 | 0.664 | 0.444 | 0.263 | 0.759 | 0.334 | 0.375 | 0.744 | TRAIL sensitization activity |  |  |
| C/C=C/C=C/C(=O)N[C@H](C(=O)NCCCCCCCC)[C@@H](C)O [NZJU41, (2E,4E)-N-((2S,3R)-3-hydroxy-1-oxo-1-(octylamino)butan-2-yl)-2,4-hexadienoic acid amide] | 102 ± 4.07 µM | 58.24 ± 0.11 µM | 40.4 ± 2.16 µM | 149 ± 3.24 µM | 123 ± 2.5 µM | ≥ 200 µM | 158 µM | direct anti-cancer cell activity | 0.551 | 0.169 | 0.790 | 0.347 | 0.113 | 0.625 | 0.362 | 0.421 | 0.819 | TRAIL sensitization activity |  |  |
| CCCCCCCCCCCCCCNC(=O)[C@@H](NC(=O)c1cc2ccccc2[nH]1)[C@@H](C)O [NZJU48, N-((2S,3R)-3-hydroxy-1-oxo-1-(tetradecylamino)butan-2-yl)-indole-2-carboxamide] | 10.5 ± 0.35 µM | 12.2 ± 1.9 µM | 12.1 ± 2.77 µM |  | 14.2 ± 1.8 µM |  | 11.8 ± 1.46 µM | direct anti-cancer cell activity |  |  |  |  |  |  |  |  |  |  | apoptotic cell death | IC50 ([1]; all of the cell lines tested, read-out: IC50 values): < 20 µM; IC50 ([1]; multiple types of cancer cells, read-out: IC50): < 20 µM |
| CCCCCCCCCCCCCCNC(=O)[C@@H](NC(=O)c1cc2ccccc2n1C)[C@@H](C)O [NZJU51, N-((2S,3R)-3-hydroxy-1-oxo-1-(tetradecylamino)butan-2-yl)-(N-methyl)indole-2-carboxamide] | 34.5 ± 2.34 µM | 13.7 ± 1.73 µM | 25.7 ± 0.42 µM |  | 26.5 ± 2.33 µM |  | 34.2 ± 1.36 µM | direct anti-cancer cell activity |  |  |  |  |  |  |  |  |  |  | apoptotic cell death |  |
